A short description of data set [1]: Plasma levels of sulforaphane and its metabolites after chronic dietary treatment. Type of data set: in vivo, mice. An excerpt: These levels are adequate to expect biological effects.
In data set [2] the test system is UVB-pretreated high-risk mice. Kind of data set: UVB radiation-induced skin carcinogenesis in high-risk mice, dietary administration. In kind it is in vivo. Conditions: for reduction of tumor incidence (percent animals with tumors) / reduction of tumor multiplicity (number of tumors per mouse): 13 weeks; for reduction of tumor multiplicity (number of tumors per mouse): diet; for number of tumors per mouse: control 4.3. The method, then:
Seeds of broccoli (Brassica oleracea italica, cv. DeCicco) were used to grow sprouts as described in Example 1. Growth was arrested after 3 days by plunging sprouts into boiling water and allowed to boil for ˜30 min. This treatment inactivated the endogenous sprout myrosinase and extracted the glucosinolates. […] The powder was mixed with the mouse diet (powdered AIN 76A) to give the equivalent of 10 μmol (low dose) or 50 μmol (high dose) of glucoraphanin per 3 grams of diet.
Body weights and formation of tumors larger than 1 mm in diameter were determined weekly.
UVB radiation was provided by a bank of UV lamps (FS72T12-UVB-HO, National Biological Corporation, Twinsburg, Ohio) emitting UVB (280-320 nm, 65% of total energy) and UVA (320-375 nm, 35% of total energy). The radiant dose of UVB was quantified with a UVB Daavlin Flex Control Integrating Dosimeter and further calibrated with an IL-1400 radiometer (International Light, Newburyport, Mass.).
The animals were irradiated for 20 weeks on Tuesdays and Fridays with a radiant exposure of 30 mJ/cm^2/session. One week later, the mice were divided into three groups: 30 animals in each treatment group and 30 animals in the control group. The mice in the two treatment groups received a diet into which was incorporated a freeze-dried broccoli sprout extract powder. The diet of the low dose treatment group included a freeze-dried broccoli sprout extract powder equivalent to 10 μmol/day glucoraphanin, while the diet of the high dose treatment group included a freeze-dried broccoli sprout extract powder equivalent to 50 μmol/day glucoraphanin. […] The mice were fed this diet for 13 weeks.
Tumor volumes were determined by measuring the height, length, and width of each mass that was larger than 1 mm in diameter. The average of the three measurements was used as the diameter and the volume was calculated (v=4πr^3/3). All mice were euthanized on the same day and the size and multiplicity of tumors was determined. Dorsal skins were dissected using a rectangular template (2.5×5 cm) to include the entire treated areas of the mice. Skins were stapled to cardboard, photographed, and fixed in ice-cold 10% phosphate-buffered formalin at 4° C. for 24 h.
Tumor incidence was evaluated using the Kaplan-Meier survival analysis followed by both a stratified log-rank test and a Wilcoxon test, for equality of survivor functions. Tumor multiplicity was evaluated by ANOVA and comparisons were made on all treatments and on individual, paired treatments (t-test). Tumor volume was evaluated by ANOVA with treatment time as a nested variable. These calculations were performed using Stata 7.0 (College Station, Tex.). Other statistics were calculated using Excel.

For data set [3] the following is noted: mice, dietary; cited from earlier work.
Another data set has as its system iNOS. Conditions: IFN-γ 10 ng/ml or LPS 3 ng/ml overnight. The method, then: (§1) Cells were treated with various concentrations of sulforaphane and either IFNγ (10 ng/ml) or lipopolysaccharide (LPS; 3 ng/ml) for 24 h. NO in the medium was measured as nitrite by the Griess reaction (A), and iNOS induction was detected by Northern (B) and Western (C) blotting.
RAW 264.7 macrophages (2×10^6 cells/well) were incubated with sulforaphane and either 10 ng/ml of IFN-γ or 3 ng/ml of LPS overnight. For Northern blots, total RNA was isolated with Trizol reagent (Invitrogen) and prepared for blotting as previously described (33). Probes for iNOS and GAPDH were radiolabeled with […] with random primers. For Western blots, total cell lysates were subjected to SDS/PAGE, transferred to a membrane, and probed with iNOS and β-actin antibodies (Santa Cruz Biotechnology).

The test system of a further data set is myeloperoxidase (MPO). Kind of data set: Skin myeloperoxidase (MPO) after 311-nm UV radiation. Type of data set: in vivo, SKH-1 hairless mice. To be noted: three topical doses at 24-h intervals, 700 mJ/cm^2 311-nm UV 24 h after last dose. The method, then: (§2) The backs of SKH-1 hairless mice were treated topically with three doses at 24-h intervals of: (i) broccoli sprout extract containing 0.5 μmol of sulforaphane in 50 μl of 80% acetone/20% water (vol/vol) applied to the caudal area, and (ii) solvent applied to the rostral area. The animals received 700 mJ/cm^2 of 311-nm UV radiation 24 h after the last dose and were euthanized 24 h later, and their dorsal skin was harvested. (A) Fresh frozen 9-μm-thick sections of skin were fixed with paraformaldehyde and stained with H&E. (Scale bar 100 μm). (B) Mice were irradiated with a range of doses of UV radiation and euthanized 24 h later. (C) MPO-specific activity was measured in supernatant fractions of total homogenates prepared from liquid nitrogen-frozen and pulverized dorsal skin, and its protein levels were detected by Western blots with anti-MPO antibody (Hycult Biotechnology, Uden, The Netherlands). […] (D and E) MPO-specific (D) and NQO1-specific (E) activities were measured in supernatant fractions of total skin homogenates from mice treated with solvent (black bars), sulforaphane (gray bars), and broccoli sprout extract (white bars) and are expressed as ratios of each treatment to the non-irradiated control. Average values±SD are shown. Eight animals were used in the control group, and four in each of the treatment groups.

Data set [4] deals with glutathione. Conditions: topical, extract containing 1 μmol sulforaphane, skin 24 h later, vs vehicle. An excerpt:
(§3) The phase 2 response was next evaluated in vivo in […] hairless mice. Female SKH-1 hairless mice (4 weeks old) were obtained from Charles River Breeding Laboratories (Wilmington, Mass.) and were acclimatized in our animal facility for 2 weeks before the start of the experiment. The animals were kept on a 12-h light/12-h dark cycle, 35% humidity, and given free access to water and pelleted AIN 76A diet (Harlan TekLad, free of inducers). All animal experiments were in compliance with the National Institutes of Health Guidelines and were approved by the Johns Hopkins University Animal Care and Use Committee.
(§4) Seven-week-old SKH-1 hairless mice (5 per group) were treated topically on their backs with either 100 μl of a standardized myrosinase-hydrolyzed broccoli sprout extract containing 1 μmol of sulforaphane, or vehicle (100 μl of 80% acetone:20% water, v/v). The animals were euthanized 24 h later and their dorsal skins were dissected using a rectangular template (2.5×5 cm) and frozen in liquid N2. Skin samples were pulverized in liquid N2 and 100 mg of the resulting powder was homogenized in 1 ml of either 0.25 M sucrose buffered with 10 mM Tris-HCl, pH 7.4, for analysis of NQO1 enzymatic activity and protein content, or ice-cold metaphosphoric acid (50 g/liter) in 2 mM EDTA for analysis of glutathione. […]

Data set [5] has as its system NQO1. To be noted: topical, extract containing 1 μmol sulforaphane, skin 24 h later, vs vehicle.
From the text: as §3, §4

A further data set relates to RAW 264.7 cells. Nature of the data set: cells. Conditions: Mus musculus, RAW264.7, 24 h, read-out: IC50, inhibition of NO formation. The procedure: as §1
For data set [6], the system named is NQO1. Kind of data set: Skin NQO1 specific activity after 311-nm UV radiation. Type of data set: in vivo, SKH-1 hairless mice. Conditions: three topical doses at 24-h intervals, 700 mJ/cm^2 311-nm UV 24 h after last dose. The procedure: as §2
For data set [7] the following is noted: in vivo; cited from earlier work.
In data set [8] the test system is glutathione. Conditions: 24 h exposure, serial dilutions. The method, then:
(§5) Cells (20,000 per well) were plated on 96-well plates and exposed to a series of concentrations of sulforaphane. GSH and NQO1 levels were measured in cell lysates after 24 h and 48 h, respectively. Each data point represents the average of the measurements from 8 different wells.
(§6) HaCaT human keratinocytes (a gift from G. Tim Bowden, Arizona Cancer Center, Tucson) were cultured in Dulbecco's modified Eagle's medium (DMEM) supplemented with 5% FBS; and PE murine keratinocytes (a gift from Stuart H. Yuspa, National Cancer Institute, Bethesda, Md.) were cultured in Eagle's minimum essential medium (EMEM) with 8% FBS, treated with Chelex resin (Bio-Rad) to remove Ca^2+.
(§7) Cells (20,000 per well) were grown for 24 h in 96-well plates, then exposed to serial dilutions of sulforaphane for either 24 h (for glutathione determination) or 48 h (for NQO1 determination), and finally lysed in 0.08% digitonin. An aliquot (25 μl) was used for protein analysis. Activity of NQO1 was determined by the Prochaska test (29,30). To measure the intracellular glutathione levels, 25 μl of cell lysate received 50 μl of ice-cold metaphosphoric acid (50 g/liter) in 2 mM EDTA to precipitate cellular protein. After 10 min at 4° C., plates were centrifuged at 1,500 g for 15 min and 50 μl of the resulting supernatant fractions were transferred to a parallel plate. To each of these wells, 50 μl of 200 mM sodium phosphate buffer, pH 7.5, containing 10 mM EDTA, were added and total cellular glutathione was determined by rate measurements in a recycling assay (31,32).

Another data set relates to quinone reductase (NQO1). To be noted: 48 h exposure; for intracellular level of NQO1: serial dilutions. The procedure:
as §5, §6, §7

In another data set the test system is HaCaT cells. To be noted: HaCaT cells at concentrations giving >10-fold NQO1 induction.
A further data set relates to PE murine keratinocytes. Conditions: 5 μM for 24 h, UVA 10 J/cm^2, PE cells.

Molecules are shown by their SMILES. “Also recorded” adds a separate entry of the source. Like-named read-outs stand apart in the source and are kept apart here.

Method for PE murine keratinocytes: Cells (50,000 per well) were plated on 24-well plates, treated with 5 μM sulforaphane for 24 h, washed with DPBS, and then exposed to UVA (10 J/cm^2). Reactive oxygen intermediates generated by the UV radiation were quantified by the fluorescent probe 2′,7′-dichlorodinitrofluorescein and fluorescence intensity was measured (expressed as a ratio of exposed to non-exposed cells).
PE cells (50,000 per well) were seeded into 24-well plates and grown for 48 h. The cells were then exposed to 1 μM or 5 μM sulforaphane for 24 h. On the day of the experiments, after removing the medium, the cells were incubated with 100 μM 2′,7′-dichlorodinitrofluorescein diacetate in 500 μl of fresh medium (Molecular Probes, Eugene, Oreg.) for 30 min. The medium containing the fluorescent probe was then removed, the cells were washed with DPBS, and exposed to UVA radiation (10 J/cm^2). Control cells were kept in the dark. Cells were detached with trypsin, suspended in 2.0 ml of DPBS, and the intensity of fluorescence was determined in cell suspensions at 520 nm with an excitation of 485 nm in 2-ml cuvettes in a Perkin-Elmer LS50 spectrofluorimeter.

On to `C[S+]([O-])CCCC/C(=N\OS(=O)(=O)O)S[C@@H]1O[C@H](CO)[C@@H](O)[C@H](O)[C@H]1O` (stereo partly shown) [glucoraphanin], for which the “plasma levels of sulforaphane and its metabolites” value in data set [1] (high dose 50 μmol/day glucoraphanin) was 2.5 µM; in data set [1] (low dose 10 μmol/day glucoraphanin), 2.2 µM. Also, the “inhibition in the total tumor volume per mouse” value in data set [2] (high dose 50 μmol/day) and in [2] (low dose 10 μmol/day) was 70% throughout. For the same compound, the “reduction of tumor incidence (percent animals with tumors)” value in data set [2] (high dose 50 μmol/day glucoraphanin as freeze-dried broccoli sprout extract powder in diet) was 35%; in [2] (low dose 10 μmol/day glucoraphanin as freeze-dried broccoli sprout extract powder in diet), 25%. Also, the “reduction of tumor multiplicity (number of tumors per mouse)” value in [2] (high dose 50 μmol/day) worked out at 72%; in data set [2] (low dose 10 μmol/day) it was 47%. In addition, the “number of tumors per mouse” value stood at 1.2 in [2] (high dose 50 μmol/day) and 2.3 in data set [2] (low dose 10 μmol/day). Besides, the “fraction converted to sulforaphane upon ingestion” value in data set [3] is reported as “about 10%”.
Take `C[S+]([O-])CCCCN=C=S` (stereo not shown) [sulforaphane, 4-methylsulfinylbutyl isothiocyanate]: the “synthesis of iNOS mRNA” value with iNOS (Northern blot) is “inhibited”. The “synthesis of iNOS protein” value in the data set on iNOS (Western blot) is recorded as “inhibited”. The “UV radiation-induced MPO protein and enzyme activity” value with myeloperoxidase (MPO) is “suppressed the increases of MPO protein and enzyme activity levels; also recorded: equivalent protection against the UV radiation-induced MPO elevation”. Moreover, the “elevation of the total glutathione levels” value in the data set with glutathione [4] was roughly 15%. Also, the “induction of NQO1” value in the data set with NQO1 [5] is given as roughly 50%. In addition, the “reduction of tumor multiplicity (number of tumors per mouse)” value came to 72% in data set [2] (high dose 50 μmol/day) and 47% in [2] (low dose 10 μmol/day). In addition, in the data set with RAW 264.7 cells, the IC50 came to 0.3 µM. The “NQO1 specific activity in skin homogenates” value in the data set on NQO1 [6] was “increased the specific activities; also recorded: restoration of the UV radiation decreased NQO1 levels”. In data set [7], the tissue half-life is 1 to 2 h. For the same compound, the “intracellular level of glutathione” value in the data set with glutathione [8] (HaCaT human keratinocytes) and in the data set with glutathione [8] (PE murine keratinocytes) was “increased in a dose-dependent manner” each time. Moreover, the “magnitude of NQO1 induction” value in the data set with quinone reductase (NQO1) (HaCaT cells) is reported as greater than 10 fold. For the same compound, the “intracellular level of NQO1” value in the data set with quinone reductase (NQO1) (HaCaT human keratinocytes) and with quinone reductase (NQO1) (PE murine keratinocytes) was “increased in a dose-dependent manner” in each case. The cytotoxicity entry in the data set with HaCaT cells is recorded as “without any apparent evidence of cytotoxicity”. For the same compound, the “reduction in reactive oxygen intermediates generated by the UV radiation” value in the data set on PE murine keratinocytes worked out at 50%.
